Assay results reported in BindingDB's records for doi:10.1016/s0960-894x(99)00094-3 (Cold Spring Harbor Laboratory, 1999).

Assays:
[1] = Compound was evaluated for concentration that caused 50% inhibition of yeast Farnesyltransferase (expressed as a GST fusion protein in Escherichia coli)
[2] = Compound was evaluated for concentration that caused 50% inhibition of bovine Farnesyltransferase

SMILES	IC50 [1] [µM]	IC50 [2] [µM]
CSCC[C@H](NC(=O)[C@H](Cc1ccccc1)NC[C@@H](NC[C@@H](N)CS)C(C)C)C(=O)O [N-[2(S)-[2(R)-amino-3-mercaptopropylamino]-3-methylbutyl]-Phe-Met-OH]	0.3	0.021
CSCC[C@H](NC(=O)[C@@H]1CC[C@@H]2CC[C@](Cc3ccccc3)(NC(=O)[C@H](CS)NC(=O)OCC3c4ccccc4-c4ccccc43)C(=O)N21)C(=O)O [(S)-2-({(3S,6R,8aR)-6-Benzyl-6-[(R)-2-(9H-fluoren-9-ylmethoxycarbonylamino)-3-mercapto-propionylamino]-5-oxo-octahydro-indolizine-3-carbonyl}-amino)-4-methylsulfanyl-butyric acid]	5	–
CSCCC(NC(=O)[C@@H]1CC[C@@H]2CC[C@](Cc3ccccc3)(NC(=O)[C@@H](N)CS)C(=O)N21)C(=O)O (stereo partly drawn) [(S)-2-{[(3S,6R,8aR)-6-((R)-2-Amino-3-mercapto-propionylamino)-6-benzyl-5-oxo-octahydro-indolizine-3-carbonyl]-amino}-4-methylsulfanyl-butyric acid]	–	> 200
CSCC[C@H](NC(=O)[C@@H]1CC[C@@H]2CCC[C@H](NC(=O)[C@H](N)CS)C(=O)N21)C(=O)O [(S)-2-{[(3S,6S,9aS)-6-((S)-2-Amino-3-mercapto-propionylamino)-5-oxo-octahydro-pyrrolo[1,2-a]azepine-3-carbonyl]-amino}-4-methylsulfanyl-butyric acid]	–	> 200
